The results in this text go back to patent US6440974B2, “Compounds useful for inhibition of farnesyl protein transferase” (Schering Corporation, priority 1997, dated 2002).

Data set [1] addresses farnesyl protein transferase (Homo sapiens, UniProt P49354+P49356). Briefly: FPT IC50 (inhibition of farnesyl protein transferase, in vitro enzyme assay). The data set is classed as biochemical. The procedure:
(§1) FPT IC50 (inhibition of famesyl protein transferase, in vitro enzyme assay) and COS Cell IC50 (Cell-Based Assay) were determined following the assay procedures described in WO 95/10516, published Apr. 20, 1995. GGPIT IC50 (inhibition of geranylgeranyl protein transferase, in vitro enzyme assay), Cell Mat Assay, and anti-tumor activity (in vivo anti-tumor studies) could be determined by the assay procedures described in WO 95/10516. The disclosure of WO 95/10516 is incorporated herein by reference thereto.

The next data set relates to COS Cell. The data set can be described thus: COS Cell IC50 (Cell-Based Assay). The following applies: for IC50: cell-based assay. As for the experimental part: as §1
In a further data set the test system is Human tumor cells. The data set can be described thus: Soft Agar Assay (anchorage-independent growth). The data set is classed as cell-based. The procedure:
Anchorage-independent growth is a characteristic of tumorigenic cell lines. Human tumor cells can be suspended in growth medium containing 0.3% agarose and an indicated concentration of a farnesyl transferase inhibitor. The solution can be overlayed onto growth medium solidified with 0.6% agarose containing the same concentration of farnesyl transferase inhibitor as the top layer. After the top layer is solidified, plates can be incubated for 10-16 days at 37° C. under 5% CO2 to allow colony outgrowth. After incubation, the colonies can be stained by overlaying the agar with a solution of MTT (3-[4,5-dimethylthiazol-2-yl]-2,5-diphenyltetrazolium bromide, Thiazolyl blue) (1 mg/mL in PBS). Colonies can be counted and the IC50's can be determined.

What is called IC50 is the concentration that inhibits the measured activity by half. For `O=C(CC1CCOCC1)N1CCN([C@@H]2c3ccc(Cl)cc3CCc3cc(Br)cnc32)CC1` [Example 33], half-maximal inhibition in data set [1] (IC50) was put at 45 nM.
As a reminder, the melting point is the temperature of the solid-liquid transition. Regarding `O=C(CC1CCOCC1)N1CCC([C@H]2c3ncc(Br)cc3CCc3cc(Cl)cc(Br)c32)CC1` [Example 1], the melting point was 83.2 to 88.7 °C.
With `O=C(CC1COCCO1)N1CCC(C2c3ncc(Br)cc3CCc3cc(Cl)cc(Br)c32)CC1` (centres unmarked) [Example 6], the melting point is 111 to 124 °C (dec.). The midpoint of inhibition in data set [1], the IC50, lay at 23 nM.
With `O=C(CN1CC[S+]([O-])CC1)N1CCN(C2c3ccc(Cl)c(Br)c3CCc3cc(Br)cnc32)CC1` (centres unmarked) [Example 39], the 50% inhibitory concentration (IC50) was 4.7 nM in data set [1] and 68 nM in the data set on COS Cell (COS).
In turn, `O=C(CC1=CCOCC1)N1CCC(C2c3ncc(Br)cc3CCc3cc(Cl)cc(Br)c32)CC1` (centres unmarked) [Example 3] showed a melting point of 110.3 to 113.9 °C. The molecule also displayed a concentration for half-maximal inhibition (IC50) in data set [1] of 6.1 nM.
On to `O=C(C1CC2CCC1CO2)N1CCC(C2c3ncc(Br)cc3CCc3cc(Cl)cc(Br)c32)CC1` (single isomer, unassigned) [Example 30], for which the melting point is 151 to 159 °C (dec.). In data set [1], this molecule yielded a concentration for half-maximal inhibition (IC50) of 7.5 nM. Further, half-maximal inhibition in the data set with COS Cell (IC50) required 75 nM.
As for `O=C(CC1CCOCC1)N1CCC([C@@H]2c3c(Br)cc(Cl)cc3CCc3cc(Br)c[n+]([O-])c32)CC1` [Example 40], the melting point is 141 to 151 °C (dec.). In data set [1], this molecule showed a half-maximal inhibitory concentration (IC50) of 2.2 nM. Moreover, the “COS Cell, percent at given concentration (printed in the COS Cell IC50 column)” value with COS Cell (@ 10 nM) was 100% @ 10. This molecule also yielded an IC50 in the data set with Human tumor cells of 8 nM.
As to `O=C(CC1CCCO1)N1CCC(C2c3ncc(Br)cc3CCc3cc(Cl)cc(Br)c32)CC1` (centres unmarked) [Example 7], the melting point is 107 to 115 °C (dec.). The same molecule yielded an IC50 in data set [1] of 42 nM.
As for `O=C(C1CC2CCC1CO2)N1CCC(C2c3ncc(Br)cc3CCc3cc(Cl)cc(Br)c32)CC1` (single isomer, unassigned) [Example 29], the melting point was 152 to 164 °C (dec.). Also, the IC50 in data set [1] was 6.7 nM. This molecule gave an IC50 in the data set on COS Cell of 30 nM.
Turning to `O=C(CN1CCSCC1)N1CCC([C@H]2c3ncc(Br)cc3CCc3cc(Cl)cc(Br)c32)CC1` [Example 37], the values for the half-maximal inhibitory concentration (IC50) (in data set [1]; in the data set with COS Cell (COS)) were 4.9 nM and under 10 nM, respectively.
In turn, `O=C(CN1CCOCC1)N1CCC([C@H]2c3ncc(Br)cc3CCc3cc(Cl)cc(Br)c32)CC1` [Example 36] came in with an IC50 in data set [1] of 3.1 nM.
Consider `O=C(CC1CCCCO1)N1CCC(C2c3ncc(Br)cc3CCc3cc(Cl)cc(Br)c32)CC1` (centres unmarked) [Example 8], for which the melting point is 116 to 122 °C (dec.). Moreover, the IC50 in data set [1] was determined as 2 nM. Besides, half-maximal inhibition in the data set on COS Cell (COS) (IC50) required 68 nM.
